From PubChem BioAssay AID248 (DTP/NCI, 2004)
Values joined by “and” are separate entries in the source; they are usually repeats but may differ in a detail not shown here. Equal entries are not always repeated. Inconclusive results and toxic doses are left out.

Test system: L1210 leukemia ip in BDF1 mice, survival T/C
Assay: NCI In Vivo Anticancer Drug Screen. Data for tumor model L1210 Leukemia (intraperitoneal) in B6D2F1 (BDF1) mice
Details: endpoint: mean survival time, higher = longer survival
Summary of the method: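 Antitumor effect is assessed in tumor-bearing animals. Survival in the compound arm is compared with a vehicle-dosed control arm and expressed as their quotient.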

[1] = dose: 50.0 mg/kg/injection, schedule: Q01DX001 (ip), vehicle: saline
[2] = dose: 100.0 mg/kg/injection, schedule: Q01DX001 (ip), vehicle: saline
[3] = dose: 200.0 mg/kg/injection, schedule: Q01DX001 (ip), vehicle: saline
[4] = dose: 100.0 mg/kg/injection, schedule: Q04DX003 (ip), vehicle: Klucel (hydroxypropylcellulose) (HPC)
[5] = dose: 200.0 mg/kg/injection, schedule: Q04DX003 (ip), vehicle: Klucel (hydroxypropylcellulose) (HPC)
[6] = dose: 400.0 mg/kg/injection, schedule: Q04DX003 (ip), vehicle: Klucel (hydroxypropylcellulose) (HPC)
[7] = dose: 400.0 mg/kg/injection, schedule: Q01DX001 (ip), vehicle: saline
[8] = dose: 75.0 mg/kg/injection, schedule: Q01DX001 (ip), vehicle: other
[9] = dose: 150.0 mg/kg/injection, schedule: Q01DX001 (ip), vehicle: other
[10] = dose: 100.0 mg/kg/injection, schedule: Q01DX001 (ip), vehicle: carboxymethylcellulose (CMC)
[11] = dose: 200.0 mg/kg/injection, schedule: Q01DX001 (ip), vehicle: carboxymethylcellulose (CMC)
[12] = dose: 100.0 mg/kg/injection, schedule: Q04DX003 (ip), vehicle: saline with Tween-80
[13] = dose: 200.0 mg/kg/injection, schedule: Q04DX003 (ip), vehicle: saline with Tween-80
[14] = dose: 400.0 mg/kg/injection, schedule: Q04DX003 (ip), vehicle: saline with Tween-80

## CN(CCN(N=O)C(N)=O)[N+](=O)[O-]
dose: 100.0 mg/kg/injection, schedule: Q04DX002 (ip), vehicle: other
  T/C: 98 % of control
dose: 200.0 mg/kg/injection, schedule: Q04DX002 (ip), vehicle: other
  T/C: 94 % of control
dose: 400.0 mg/kg/injection, schedule: Q04DX002 (ip), vehicle: other
  T/C: 109 % of control

## C=C1CCC2C(O)CCN2C1=O (stereo unspecified)
dose: 25.0 mg/kg/injection, schedule: Q01DX001 (ip), vehicle: saline
  T/C: 103 % of control
[1]
  T/C: 106 % of control
[2]
  T/C: 109 % of control
[3]
  T/C: 104 % of control

## CCOC(=O)C(C)Oc1ccc([N+](=O)[O-])cc1[N+](=O)[O-] (stereo unspecified)
[4]
  T/C: 95 % of control
[5]
  T/C: 90 % of control
[6]
  T/C: 98 % of control

## CC(C)N=Cc1cc(Br)cc(Br)c1O.CC(C)N=Cc1cc(Br)cc(Br)c1O.[Co]
dose: 100.0 mg/kg/injection, schedule: Q04DX003 (ip), vehicle: saline
  T/C: 88 % of control
dose: 200.0 mg/kg/injection, schedule: Q04DX003 (ip), vehicle: saline
  T/C: 91 % of control
dose: 400.0 mg/kg/injection, schedule: Q04DX003 (ip), vehicle: saline
  T/C: 105 % of control

## CNc1c(Cl)n(C)c(=O)n(C)c1=O
[1]
  T/C: 101 % of control
[2]
  T/C: 101 % of control
[3]
  T/C: 104 % of control
[7]
  T/C: 101 % of control

## O=C(NC1CCCCC1)c1csnn1
[8]
  T/C: 89 % of control
[9]
  T/C: 97 % of control

## CC(=O)Oc1ccc(C[n+]2ccccc2)cc1
dose: 12.5 mg/kg/injection, schedule: Q01DX009 (ip), vehicle: saline
  T/C: 94 % of control
dose: 25.0 mg/kg/injection, schedule: Q01DX009 (ip), vehicle: saline
  T/C: 86 % of control
dose: 25.0 mg/kg/injection, schedule: Q04DX003 (ip), vehicle: saline
  T/C: 106 % of control
dose: 50.0 mg/kg/injection, schedule: Q04DX003 (ip), vehicle: saline
  T/C: 100 % of control

## CSCC1OC(n2cnc3c(N)ncnc32)C(O)C1O (stereo unspecified)
dose: 50.0 mg/kg/injection, schedule: Q01DX001 (ip), vehicle: saline with Tween-80
  T/C: 96 % of control
dose: 100.0 mg/kg/injection, schedule: Q01DX001 (ip), vehicle: saline with Tween-80
  T/C: 96 % of control
dose: 200.0 mg/kg/injection, schedule: Q01DX001 (ip), vehicle: saline with Tween-80
  T/C: 96 % of control

## c1ccc(-c2ccns2)cc1
dose: 50.0 mg/kg/injection, schedule: Q01DX001 (ip), vehicle: carboxymethylcellulose (CMC)
  T/C: 89 % of control
[10]
  T/C: 89 % of control
[11]
  T/C: 93 % of control

## O=C1NCC(Nc2ccc(Cl)cc2)C(=O)N1 (stereo unspecified)
dose: 100.0 mg/kg/injection, schedule: Q01DX Z (ip), vehicle: methylcellulose (MC)
  T/C: 89 % of control
dose: 200.0 mg/kg/injection, schedule: Q01DX Z (ip), vehicle: methylcellulose (MC)
  T/C: 92 % of control

## COCCOC(C)C(/C=N/NC(N)=S)=N/NC(N)=S (stereo unspecified)
[1]
  T/C: 100 % of control
[2]
  T/C: 100 % of control
[3]
  T/C: 93 % of control
[7]
  T/C: 97 % of control

## O=C(Nc1ccc(NC(=O)Nc2cccc(C3=NCCCN3)c2)cc1)Nc1cccc(C2=NCCCN2)c1
dose: 6.25 mg/kg/injection, schedule: Q01DX Z (ip), vehicle: carboxymethylcellulose (CMC)
  T/C: 101 % of control
dose: 8.0 mg/kg/injection, schedule: Q01DX Z (oral), vehicle: carboxymethylcellulose (CMC)
  T/C: 104 % of control
dose: 12.5 mg/kg/injection, schedule: Q01DX Z (ip), vehicle: carboxymethylcellulose (CMC)
  T/C: 102 % of control
dose: 16.0 mg/kg/injection, schedule: Q01DX Z (oral), vehicle: carboxymethylcellulose (CMC)
  T/C: 95 % of control
dose: 31.0 mg/kg/injection, schedule: Q01DX Z (oral), vehicle: carboxymethylcellulose (CMC)
  T/C: 97 % of control
dose: 50.0 mg/kg/injection, schedule: Q01DX Z (ip), vehicle: carboxymethylcellulose (CMC)
  T/C: 157 % of control
dose: 62.0 mg/kg/injection, schedule: Q01DX Z (oral), vehicle: carboxymethylcellulose (CMC)
  T/C: 103 % of control
dose: 125.0 mg/kg/injection, schedule: Q01DX Z (oral), vehicle: carboxymethylcellulose (CMC)
  T/C: 106 % of control
dose: 250.0 mg/kg/injection, schedule: Q01DX Z (oral), vehicle: carboxymethylcellulose (CMC)
  T/C: 105 % of control
dose: 500.0 mg/kg/injection, schedule: Q01DX Z (oral), vehicle: carboxymethylcellulose (CMC)
  T/C: 106 % of control

## O=C(NCC(F)(F)C(F)(F)C(F)(F)C(F)(F)C(F)(F)C(F)(F)C(F)(F)F)Oc1ccccc1
[8]
  T/C: 104 % of control
[9]
  T/C: 96 % of control
dose: 300.0 mg/kg/injection, schedule: Q01DX001 (ip), vehicle: other
  T/C: 94 % of control

## CCOP(=O)(OCC)c1cccc(Cl)c1
dose: 75.0 mg/kg/injection, schedule: Q01DX001 (ip), vehicle: saline
  T/C: 101 % of control

## CC(C)[C@]12O[C@H]1[C@@H]1O[C@@]13[C@@]1(C)CCC4=C(COC4=O)[C@@H]1C[C@@H]1O[C@@]13C2=O
dose: 79.0 micrograms/kg/injection, schedule: Q01DX009 (ip), vehicle: saline
  T/C: 92 % of control
dose: 118.0 micrograms/kg/injection, schedule: Q01DX009 (ip), vehicle: saline
  T/C: 105 % of control
dose: 178.0 micrograms/kg/injection, schedule: Q01DX009 (ip), vehicle: saline
  T/C: 99 % of control
dose: 267.0 micrograms/kg/injection, schedule: Q01DX009 (ip), vehicle: saline
  T/C: 101 % of control
dose: 400.0 micrograms/kg/injection, schedule: Q01DX009 (ip), vehicle: saline
  T/C: 108 % of control

## Nc1nc(SN=Nc2ccc(S(N)(=O)=O)cc2)c2[nH]cnc2n1
dose: 0.16 mg/kg/injection, schedule: Q01DX Z (ip), vehicle: other
  T/C: 110 % of control
dose: 1.5 mg/kg/injection, schedule: Q04DX003 (ip), vehicle: saline with Tween-80
  T/C: 111 % of control
dose: 2.0 mg/kg/injection, schedule: Q01DX Z (ip), vehicle: methylcellulose (MC)
  T/C: 165 % of control
dose: 3.0 mg/kg/injection, schedule: Q01DX Z (ip), vehicle: methylcellulose (MC)
  T/C: 154 % of control
dose: 5.0 mg/kg/injection, schedule: Q01DX Z (ip), vehicle: other
  T/C: 153 % of control
dose: 12.0 mg/kg/injection, schedule: Q04DX003 (ip), vehicle: saline with Tween-80
  T/C: 155 % of control
dose: 17.0 mg/kg/injection, schedule: Q04DX003 (ip), vehicle: saline with Tween-80
  T/C: 158 % of control and 159 % of control
dose: 20.0 mg/kg/injection, schedule: Q01DX Z (ip), vehicle: methylcellulose (MC)
  T/C: 124 % of control
dose: 25.0 mg/kg/injection, schedule: Q04DX003 (ip), vehicle: saline with Tween-80
  T/C: 151 % of control and 190 % of control
dose: 37.0 mg/kg/injection, schedule: Q04DX003 (ip), vehicle: saline with Tween-80
  T/C: 155 % of control and 164 % of control
dose: 68.0 mg/kg/injection, schedule: Q01DX Z (ip), vehicle: other
  T/C: 109 % of control
dose: 102.0 mg/kg/injection, schedule: Q01DX Z (ip), vehicle: other
  T/C: 102 % of control

## OC1COC(c2ccco2)OC1 (stereo unspecified) (tested in a mixture with another compound)
dose: 100.0 mg/kg/injection, schedule: Q01DX009 (ip), vehicle: Klucel (hydroxypropylcellulose) (HPC)
  T/C: 94 % of control
[4]
  T/C: 102 % of control
dose: 200.0 mg/kg/injection, schedule: Q01DX009 (ip), vehicle: Klucel (hydroxypropylcellulose) (HPC)
  T/C: 105 % of control
[5]
  T/C: 101 % of control
[6]
  T/C: 102 % of control

## CCCCC(=O)N1C(=O)/C(=C\N(C)C)c2cc(C=O)ccc21
dose: 100.0 mg/kg/injection, schedule: Q01DX001 (ip), vehicle: Klucel (hydroxypropylcellulose) (HPC)
  T/C: 90 % of control
dose: 200.0 mg/kg/injection, schedule: Q01DX001 (ip), vehicle: Klucel (hydroxypropylcellulose) (HPC)
  T/C: 90 % of control
dose: 400.0 mg/kg/injection, schedule: Q01DX001 (ip), vehicle: Klucel (hydroxypropylcellulose) (HPC)
  T/C: 93 % of control

## NN1C(=O)Cc2ccccc2C1=O
[10]
  T/C: 102 % of control
[12]
  T/C: 101 % of control
[11]
  T/C: 93 % of control
[13]
  T/C: 101 % of control
dose: 400.0 mg/kg/injection, schedule: Q01DX001 (ip), vehicle: carboxymethylcellulose (CMC)
  T/C: 96 % of control
[14]
  T/C: 116 % of control

## CN1CCN(c2ccccc2N)CC1
dose: 5.0 mg/kg/injection, schedule: Q04DX003 (ip), vehicle: saline
  T/C: 107 % of control
dose: 10.0 mg/kg/injection, schedule: Q04DX003 (ip), vehicle: saline
  T/C: 96 % of control
dose: 20.0 mg/kg/injection, schedule: Q04DX003 (ip), vehicle: saline
  T/C: 96 % of control

## CC(C)OC(=S)SCC(=O)O
[12]
  T/C: 97 % of control
[13]
  T/C: 93 % of control
[14]
  T/C: 93 % of control
